From PubChem BioAssay (NCI)
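Following 48 hours of exposure in 96-well plates, responses at five concentrations were used to interpolate endpoints linearly. The concentration for full growth arrest is given as TGI.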

What was measured:
Test in all cases: NCI tumour cell line growth inhibition, 48 h
[1] = test system: NCI-H23 lung
[2] = test system: HT29 colon
[3] = test system: HCT-15 colon
[4] = test system: MOLT-4 leukemia
[5] = test system: NCI-H522 lung
[6] = test system: SW-620 colon
[7] = test system: SK-MEL-2 melanoma
[8] = test system: OVCAR-8 ovarian
[9] = test system: SK-OV-3 ovarian
[10] = test system: SN12C renal
[11] = test system: SF-539 CNS
[12] = test system: UACC-257 melanoma
[13] = test system: NCI-H460 lung
[14] = test system: DMS 273 small cell lung
[15] = test system: OVCAR-5 ovarian
[16] = test system: DLD-1 colon
[17] = test system: SNB-78 CNS
[18] = test system: OVCAR-4 ovarian
[19] = test system: A498 renal
[20] = test system: U251 CNS
[21] = test system: SF-295 CNS
[22] = test system: IGROV1 ovarian
[23] = test system: OVCAR-3 ovarian
[24] = test system: HOP-92 NSCLC
[25] = test system: SNB-75 CNS
[26] = test system: P388 leukemia
[27] = test system: NCI/ADR-RES ovarian
[28] = test system: P388/ADR leukemia
[29] = test system: NCI-H226 lung
[30] = test system: SF-268 CNS
[31] = test system: SK-MEL-28 melanoma
[32] = test system: UO-31 renal
[33] = test system: COLO 205 colon
[34] = test system: HCC-2998 colon
[35] = test system: KM20L2 colon
[36] = test system: SN12K1 renal
[37] = test system: CCRF-CEM leukemia
[38] = test system: SK-MEL-5 melanoma
[39] = test system: K-562 leukemia
[40] = test system: A549 NSCLC
[41] = test system: KM12 colon
[42] = test system: LOX IMVI melanoma
[43] = test system: XF 498 CNS
[44] = test system: EKVX NSCLC
[45] = test system: HOP-62 NSCLC
[46] = test system: RXF 393 renal
[47] = test system: UACC-62 melanoma
[48] = test system: MALME-3M melanoma
[49] = test system: M19-MEL melanoma
[50] = test system: RPMI-8226 leukemia
[51] = test system: HL-60(TB) leukemia
[52] = test system: SNB-19 CNS
[53] = test system: DMS 114 small cell lung
[54] = test system: HCT-116 colon
[55] = test system: CAKI-1 renal
[56] = test system: MCF7 breast
[57] = test system: 786-0 renal
[58] = test system: HOP-18 NSCLC
[59] = test system: ACHN renal
[60] = test system: TK-10 renal
[61] = test system: SR leukemia
[62] = test system: LXFL 529 NSCLC
[63] = test system: RXF-631 renal
[64] = test system: M14 melanoma

Cc1c2cc[nH]c(C(F)(F)F)c2cc2c1nc1ccccc12
TGI [1]: > 125 µM
TGI [2]: > 125 µM
TGI [3]: > 125 µM
TGI [4]: > 78.9 µM
TGI [5]: > 125 µM
TGI [6]: > 125 µM
TGI [7]: > 125 µM
TGI [8]: > 125 µM
TGI [9]: > 125 µM
TGI [10]: > 125 µM
TGI [11]: > 125 µM
TGI [12]: > 125 µM
TGI [13]: > 125 µM
TGI [14]: > 125 µM
TGI [15]: > 125 µM
TGI [16]: > 125 µM
TGI [17]: > 125 µM
TGI [18]: > 125 µM
TGI [19]: > 113 µM
TGI [20]: > 125 µM
TGI [21]: > 125 µM
TGI [22]: > 125 µM
TGI [23]: > 125 µM
TGI [24]: > 125 µM
TGI [25]: 108 µM
TGI [26]: > 125 µM
TGI [27]: > 125 µM
TGI [28]: > 70.3 µM
TGI [29]: > 125 µM
TGI [30]: > 125 µM
TGI [31]: > 125 µM
TGI [32]: > 125 µM
TGI [33]: > 125 µM
TGI [34]: > 125 µM
TGI [35]: > 125 µM
TGI [36]: > 125 µM
TGI [37]: > 125 µM
TGI [38]: > 125 µM
TGI [39]: > 125 µM
TGI [40]: > 125 µM
TGI [41]: > 125 µM
TGI [42]: > 125 µM
TGI [43]: > 19.8 µM
TGI [44]: > 125 µM
TGI [45]: > 125 µM
TGI [46]: > 125 µM
TGI [47]: > 125 µM
TGI [48]: > 125 µM
TGI [49]: > 125 µM
TGI [50]: > 78.9 µM
TGI [51]: > 125 µM
TGI [52]: > 125 µM
TGI [53]: > 125 µM
TGI [54]: > 125 µM
TGI [55]: > 125 µM
TGI [56]: > 125 µM

CC(=O)OCC1OC(Nc2[nH]c(=O)n(C)c(=O)c2-c2csc(N)n2)C(OC(C)=O)C(OC(C)=O)C1OC(C)=O (centres undefined)
TGI [1]: > 100 µM
TGI [2]: > 100 µM
TGI [3]: > 100 µM
TGI [4]: > 100 µM
TGI [5]: > 100 µM
TGI [6]: > 100 µM
TGI [7]: > 100 µM
TGI [8]: > 100 µM
TGI [9]: > 100 µM
TGI [10]: > 100 µM
TGI [57]: > 100 µM
TGI [11]: > 100 µM
TGI [12]: > 100 µM
TGI [13]: > 100 µM
TGI [15]: > 100 µM
TGI [16]: > 100 µM
TGI [17]: > 100 µM
TGI [18]: > 100 µM
TGI [19]: > 100 µM
TGI [20]: > 100 µM
TGI [58]: > 100 µM
TGI [21]: > 100 µM
TGI [22]: > 100 µM
TGI [23]: > 100 µM
TGI [24]: > 100 µM
TGI [25]: > 100 µM
TGI [29]: > 100 µM
TGI [30]: > 100 µM
TGI [31]: > 100 µM
TGI [32]: > 100 µM
TGI [33]: > 100 µM
TGI [59]: > 100 µM
TGI [35]: > 100 µM
TGI [60]: > 100 µM
TGI [37]: > 100 µM
TGI [38]: > 100 µM
TGI [39]: > 100 µM
TGI [40]: > 100 µM
TGI [61]: > 100 µM
TGI [41]: > 100 µM
TGI [42]: > 100 µM
TGI [45]: > 100 µM
TGI [47]: > 100 µM
TGI [62]: > 100 µM
TGI [63]: > 100 µM
TGI [48]: > 100 µM
TGI [49]: > 100 µM
TGI [50]: > 100 µM
TGI [51]: > 100 µM
TGI [52]: > 100 µM
TGI [53]: > 100 µM
TGI [54]: > 100 µM
TGI [55]: > 100 µM
TGI [64]: > 100 µM

O=C(NCCCCCCCCNC(=O)c1cnc2ccccc2n1)c1cnc2ccccc2n1
TGI [1]: > 100 µM
TGI [2]: > 100 µM
TGI [3]: > 100 µM
TGI [4]: > 100 µM
TGI [6]: > 100 µM
TGI [7]: > 100 µM
TGI [8]: > 100 µM
TGI [9]: > 100 µM
TGI [10]: > 100 µM
TGI [57]: > 100 µM
TGI [11]: > 100 µM
TGI [12]: > 100 µM
TGI [13]: > 100 µM
TGI [14]: > 100 µM
TGI [15]: > 100 µM
TGI [16]: > 100 µM
TGI [17]: > 100 µM
TGI [18]: > 100 µM
TGI [19]: > 100 µM
TGI [20]: > 100 µM
TGI [58]: > 100 µM
TGI [21]: > 100 µM
TGI [22]: > 100 µM
TGI [23]: > 100 µM
TGI [24]: > 100 µM
TGI [25]: > 100 µM
TGI [29]: > 100 µM
TGI [30]: > 100 µM
TGI [32]: > 100 µM
TGI [33]: > 100 µM
TGI [59]: > 100 µM
TGI [60]: > 100 µM
TGI [37]: > 100 µM
TGI [38]: > 100 µM
TGI [39]: > 100 µM
TGI [40]: > 100 µM
TGI [61]: > 100 µM
TGI [41]: > 100 µM
TGI [42]: > 100 µM
TGI [43]: > 100 µM
TGI [44]: > 100 µM
TGI [45]: > 100 µM
TGI [46]: > 100 µM
TGI [47]: > 100 µM
TGI [62]: > 100 µM
TGI [48]: > 100 µM
TGI [49]: > 100 µM
TGI [50]: > 100 µM
TGI [51]: > 100 µM
TGI [52]: > 100 µM
TGI [53]: > 100 µM
TGI [54]: > 100 µM
TGI [55]: > 100 µM
TGI [64]: > 100 µM
